# Assay results published in patent US10202371B2, “Oxazolidin-2-one-pyrimidine derivatives and the use thereof as phosphatidylinositol-3-kinase inhibitors” (Novartis AG, priority 2012, dated 2019).
# pIC50: −log10 of the molar value. Read-outs that look alike come from different tables or passages of the source.
# Experiments:
# Assay type in all cases: cell-based
# [1] = test system: HaCaT keratinocyte cell line; assay: BrdU cell proliferation assay HaCaT keratinocytes; conditions: Homo sapiens, BrdU incorporation
# Experimental: Cells of SCC or keratinocyte lines (Detroit562, SCC12B2, SCL1, HaCaT) were used for the proliferation assays when they had reached about 80% to 90% confluency. Cells were then harvested after trypsin-mediated dislodgement from culture flasks, washed in culture medium containing 10% FCS, counted in a hemocytometer and diluted complete culture medium with 5% FCS to obtain a cell density of 5×10^4 cells/ml. 100 μl of this cell suspension (e.g. 5000 cells) were transferred into each well of a 96-well white walled tissue culture plate (Corning-Costar article #3917). Cells were then allowed to settle by placing them in the CO2 incubator for 45 to 60 minutes. Subsequently, a volume of 100 μl of culture medium containing twice the desired final concentration of the test compound was added to each well of quadruplicate wells. […] The cell proliferation was determined on the basis of incorporation of bromodesoxy-uridin (BrdU) into cellular DNA using the chemiluminescent BrdU Cell Proliferation ELISA (Roche article #11 669 915 001). […] Incorporation of BrdU into the DNA was detected by BrdU-specific antibodies and quantified on the basis of an antibody-coupled luciferase mediated signal generation. The luminescence emission was measured in a Victor light 1420 Luminescence counter, (Perkin Elmer) and expressed as relative luminescence units (e.g. data points given as RLU/s) per second. […]
# [2] = test system: Detroit562 cells; assay: BrdU cell proliferation assay Detroit562; conditions: Homo sapiens, Detroit 562, BrdU incorporation
# From the text: (§1) The SCL-1 and SCC12B2 are human cutaneous squamous cell carcinoma (SCC) cell lines derived from naturally occurring, poorly differentiated SCCs. The SCL-1 cell line was originally established in the lab of N. Fusenig at the Cancer Research Center in Heidelberg, and its growth characteristics in vitro in comparison to normal keratinocytes were described previously (Neely et al 1991). The SCC12B2 cell line was established as described previously (Rheinwald & Beckett 1981) from the facial skin of a transplant patient who received immunosuppressive therapy for 7 years. The human SCC cell line Detroit562 was obtained from American Tissue Culture Collection (ATCC). Detroit562 is referred to as Head & Neck squamous cell carcinomas (HNSCC) and was derived from a pharyngeal SCC tumor. […]
# (§2) Cells of SCC or keratinocyte lines (Detroit562, SCC12B2, SCL1, HaCaT) were used for the proliferation assays when they had reached about 80% to 90% confluency. Cells were then harvested after trypsin-mediated dislodgement from culture flasks, washed in culture medium containing 10% FCS, counted in a hemocytometer and diluted complete culture medium with 5% FCS to obtain a cell density of 5×10^4 cells/ml. […] The cell proliferation was determined on the basis of incorporation of bromodesoxy-uridin (BrdU) into cellular DNA using the chemiluminescent BrdU Cell Proliferation ELISA (Roche article #11 669 915 001). […]
# [3] = test system: SCC12B2 cells; assay: BrdU cell proliferation assay SCC12B2; conditions: Homo sapiens, BrdU incorporation
# From the text: as §1, §2
structure (smiles),measurement,setting,value
"C[C@H]1[C@H](c2nccs2)OC(=O)N1c1cc(-c2cnc(N)nc2C(F)(F)F)nc(N2CCOCC2)n1 [Example 1, (4S,5R)-3-(2′-Amino-2-morpholin-4-yl-4′-trifluoromethyl-[4,5′]bipyrimidinyl-6-yl)-4-methyl-5-thiazol-2-yl-oxazolidin-2-one]",pIC50,"[1]; measurement #1, read-out: anti-proliferative IC50 HaCaT measurement #1",6.55
same,pIC50,"[1]; measurement #2, read-out: anti-proliferative IC50 HaCaT measurement #2",6.53
same,pIC50,"[2]; measurement #1, read-out: anti-proliferative IC50 Detroit562 measurement #1",6.22
same,pIC50,"[2]; measurement #2, read-out: anti-proliferative IC50 Detroit562 measurement #2",6.36
same,pIC50,"[3]; measurement #1, read-out: anti-proliferative IC50 SCC12B2 measurement #1",5.89
same,pIC50,"[3]; measurement #2, read-out: anti-proliferative IC50 SCC12B2 measurement #2",6.15
